For 22 compounds, IC50 results are on record in patent US10479795B2 (Incyte Corporation, priority 2016, dated 2019).

Assay [1] addresses PI3Kγ (p110γ) Recombinant Human Protein (Homo sapiens (Human), UniProt P48736). Briefly: PI3K-γ Scintillation Proximity Assay. Format: biochemical. Conditions: read-out: PI3Kγ IC50. In a few lines: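 Radiometric SPA readout: […] bound to WGA beads after overnight shaking, IC50 derived from % activity of DMSO control. Reaction used human p110γ, 2 μM ATP, 20 μM PIP2, pH 6.7 MOPS buffer with MgCl2, DTT, CHAPS, 2% DMSO, room temperature.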

Assay [2] deals with Phosphorylated Ribosomal Protein S6 (RPS6). Briefly: THP-1 RPS6 ELISA Assay. Format: cell-based, Human. Conditions: THP-1 cells, read-out: PI3Kγ_THP1_RPS6_ELISA IC50. Summed up:
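IC50 values come from a curve of percent inhibition against log compound concentration, using phospho-RPS6 ELISA (450 nm) on THP-1 lysates. Cells were serum-starved overnight, exposed to compound for 2 h at 37 °C, then challenged 15 min with 10 nM MCP-1.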
In general terms: An ELISA detects its analyte on a solid surface through an enzyme-linked reagent.

For assay [3], the target named is PI3Kδ (p110δ/p85α) Recombinant Human Protein (Homo sapiens (Human), UniProt O00329). Kind of assay: PI3Kδ Scintillation Proximity Assay. Format: biochemical. Summed up: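 Assay conditions: 2 μM ATP (radiolabelled), 20 μM PIP2, 3.4 nM PI3Kδ, 20 mM MOPS pH 6.7 with 10 mM MgCl2, 5 mM DTT, 0.03% CHAPS, 2 h at room temperature. Signal from bead-captured 33P product; IC50 versus solvent control.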
Sequence of PI3Kδ (p110δ/p85α) Recombinant Human Protein (O00329 whole entry): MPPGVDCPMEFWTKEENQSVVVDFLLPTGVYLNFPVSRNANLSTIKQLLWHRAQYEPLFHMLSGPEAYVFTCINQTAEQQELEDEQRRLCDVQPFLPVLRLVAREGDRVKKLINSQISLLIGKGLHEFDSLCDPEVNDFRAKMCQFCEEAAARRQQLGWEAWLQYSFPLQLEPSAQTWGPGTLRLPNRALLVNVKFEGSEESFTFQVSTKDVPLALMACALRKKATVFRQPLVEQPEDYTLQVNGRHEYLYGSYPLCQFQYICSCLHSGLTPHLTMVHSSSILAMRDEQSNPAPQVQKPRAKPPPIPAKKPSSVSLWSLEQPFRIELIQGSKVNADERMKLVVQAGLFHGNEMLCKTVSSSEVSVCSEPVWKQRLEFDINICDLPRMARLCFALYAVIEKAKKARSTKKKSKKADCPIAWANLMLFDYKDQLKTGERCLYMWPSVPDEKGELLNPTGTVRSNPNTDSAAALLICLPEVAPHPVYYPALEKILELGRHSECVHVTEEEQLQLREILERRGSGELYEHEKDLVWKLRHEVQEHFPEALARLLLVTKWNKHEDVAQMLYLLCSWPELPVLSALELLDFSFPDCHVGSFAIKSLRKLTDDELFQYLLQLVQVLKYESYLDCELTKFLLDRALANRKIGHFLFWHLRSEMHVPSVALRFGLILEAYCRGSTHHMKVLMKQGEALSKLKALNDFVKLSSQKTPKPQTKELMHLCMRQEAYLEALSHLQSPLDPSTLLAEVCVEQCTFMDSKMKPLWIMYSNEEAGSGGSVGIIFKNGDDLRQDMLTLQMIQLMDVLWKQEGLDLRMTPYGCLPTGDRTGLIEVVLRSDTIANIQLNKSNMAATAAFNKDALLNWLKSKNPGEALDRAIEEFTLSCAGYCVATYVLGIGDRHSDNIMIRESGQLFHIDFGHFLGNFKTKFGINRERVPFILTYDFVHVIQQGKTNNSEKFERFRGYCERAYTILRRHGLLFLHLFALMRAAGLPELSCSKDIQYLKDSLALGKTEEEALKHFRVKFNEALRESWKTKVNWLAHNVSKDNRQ
Sequence of PI3Kδ (p110δ/p85α) Recombinant Human Protein (P27986 whole entry partner): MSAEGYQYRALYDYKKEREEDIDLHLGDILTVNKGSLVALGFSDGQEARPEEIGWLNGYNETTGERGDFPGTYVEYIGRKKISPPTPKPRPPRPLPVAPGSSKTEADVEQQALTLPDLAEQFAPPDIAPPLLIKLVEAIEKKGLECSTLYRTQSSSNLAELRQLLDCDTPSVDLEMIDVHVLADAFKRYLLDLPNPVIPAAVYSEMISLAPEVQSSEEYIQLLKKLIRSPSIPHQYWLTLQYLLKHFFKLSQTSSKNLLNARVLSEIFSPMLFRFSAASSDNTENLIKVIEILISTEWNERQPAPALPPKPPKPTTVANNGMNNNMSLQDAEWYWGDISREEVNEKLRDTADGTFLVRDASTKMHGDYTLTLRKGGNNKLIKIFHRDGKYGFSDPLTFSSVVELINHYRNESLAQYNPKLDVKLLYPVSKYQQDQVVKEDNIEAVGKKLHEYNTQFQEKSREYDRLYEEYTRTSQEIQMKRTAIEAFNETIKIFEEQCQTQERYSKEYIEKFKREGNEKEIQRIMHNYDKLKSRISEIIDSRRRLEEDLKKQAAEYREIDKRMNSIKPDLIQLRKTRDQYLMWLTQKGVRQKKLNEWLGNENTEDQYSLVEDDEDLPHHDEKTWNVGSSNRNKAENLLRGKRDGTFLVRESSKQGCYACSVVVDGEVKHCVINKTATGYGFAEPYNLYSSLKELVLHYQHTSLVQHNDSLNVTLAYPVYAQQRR
For orientation: Scintillation proximity formats need no separation of bound from free tracer.

Counter-ions that a name gives are not always drawn. Like-named read-outs stand apart in the source and are kept apart here.

Sequence of PI3Kγ (p110γ) Recombinant Human Protein (P48736 whole entry): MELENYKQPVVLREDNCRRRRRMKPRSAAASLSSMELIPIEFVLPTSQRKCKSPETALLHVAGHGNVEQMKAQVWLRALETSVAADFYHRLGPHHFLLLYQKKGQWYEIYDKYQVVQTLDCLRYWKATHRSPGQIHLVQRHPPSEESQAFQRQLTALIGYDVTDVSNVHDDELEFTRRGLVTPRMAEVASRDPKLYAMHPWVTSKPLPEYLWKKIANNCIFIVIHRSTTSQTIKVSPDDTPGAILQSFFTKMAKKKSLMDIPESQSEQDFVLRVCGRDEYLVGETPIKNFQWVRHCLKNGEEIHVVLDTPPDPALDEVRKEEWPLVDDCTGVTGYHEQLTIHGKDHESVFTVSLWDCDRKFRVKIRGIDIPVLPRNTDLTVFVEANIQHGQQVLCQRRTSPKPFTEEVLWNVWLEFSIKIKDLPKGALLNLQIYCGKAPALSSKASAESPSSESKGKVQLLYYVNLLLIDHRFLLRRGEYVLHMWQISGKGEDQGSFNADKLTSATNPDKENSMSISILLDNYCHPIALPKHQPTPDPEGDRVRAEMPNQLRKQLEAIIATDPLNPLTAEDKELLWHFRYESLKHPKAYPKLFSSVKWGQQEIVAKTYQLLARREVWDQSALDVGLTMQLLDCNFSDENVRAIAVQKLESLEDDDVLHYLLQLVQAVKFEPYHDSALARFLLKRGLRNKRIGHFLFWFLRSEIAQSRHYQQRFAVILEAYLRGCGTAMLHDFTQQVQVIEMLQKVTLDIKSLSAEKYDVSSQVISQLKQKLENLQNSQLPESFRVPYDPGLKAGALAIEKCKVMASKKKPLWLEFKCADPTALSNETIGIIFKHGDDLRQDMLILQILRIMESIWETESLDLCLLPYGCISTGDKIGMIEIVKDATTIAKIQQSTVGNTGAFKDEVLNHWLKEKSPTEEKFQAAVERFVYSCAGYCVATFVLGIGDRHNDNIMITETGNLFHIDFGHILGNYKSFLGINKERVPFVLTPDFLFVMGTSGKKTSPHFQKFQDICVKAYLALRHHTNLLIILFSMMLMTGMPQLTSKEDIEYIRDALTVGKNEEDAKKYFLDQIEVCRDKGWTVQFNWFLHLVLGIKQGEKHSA

As usually defined, the IC50 is the concentration that inhibits the measured activity by half. On to `Cc1ccc(S(=O)(=O)N[C@H]2CC[C@H](N)CC2)cc1-c1cnc2c(N)nccn12` [Example 58, N-(trans-4-Aminocyclohexyl)-3-(8-aminoimidazo[1,2-a]pyrazin-3-yl)-4-methylbenzenesulfonamide], for which the figures for the IC50 in assay [1], in assay [2] (Homo sapiens) and in assay [3] were 100 to 500 nM, greater than 1000 nM and 500 to 2000 nM, respectively.

Consider `Cc1ccc(S(=O)(=O)NC23CCC(CO)(CC2)CC3)cc1-c1cnc2c(N)ncnn12` [Example 186, 3-(4-aminoimidazo[2,1-f][1,2,4]triazin-7-yl)-N-(4-(hydroxymethyl)bicyclo[2.2.2]octan-1-yl)-4-methylbenzenesulfonamide], for which the IC50 was less than 100 nM in assay [1], 100 to 500 nM in assay [2] (Homo sapiens) and 100 to 500 nM in assay [3].

“3-{8-Amino-6-[3-(methylsulfonyl)phenyl]imidazo[1,2-a]pyrazin-3-yl}-N-(trans-4-hydroxycyclohexyl)-4-methylbenzenesulfonamide [Example 33]”: the IC50 in assay [1] was less than 100 nM; in assay [2] it was 500 to 1000 nM; in assay [3] it was 100 to 500 nM.

Take `Cc1cn2c(-c3cc(S(=O)(=O)NC45CC(C#N)(C4)C5)ccc3C)cnc2c(N)n1` [Example 264, 3-(8-Amino-6-methylimidazo[1,2-a]pyrazin-3-yl)-N-(3-cyanobicyclo[1.1.1]pentan-1-yl)-4-methylbenzenesulfonamide trifluoroacetate salt]: the values for the concentration for half-maximal inhibition (IC50) in assay [1], in assay [2] (Homo sapiens) and in assay [3] were less than 100 nM, 100 to 500 nM and 100 to 500 nM, respectively.

On to `Cc1nc(N)c2ncc(-c3ccc(F)c(S(=O)(=O)NC45CC(C#N)(C4)C5)c3)n2n1` [Example 388, 5-(4-Amino-2-methylimidazo[1,2-f][1,2,4]triazin-7-yl)-N-(3-cyanobicyclo[1.1.1]pentan-1-yl)-2-fluorobenzenesulfonamide trifluoroacetate salt], for which the figures for the IC50 in assay [1], in assay [2] and in assay [3] were less than 100 nM, greater than 1000 nM and 100 to 500 nM, respectively.

On to “3-[8-Amino-6-(2-fluoro-6-methoxyphenyl)imidazo[1,2-a]pyrazin-3-yl]-N-(trans-4-hydroxycyclohexyl)-4-methylbenzenesulfonamide [Example 34]”, for which the IC50 in assay [1] is less than 100 nM; in assay [2] it was 100 to 500 nM; in assay [3], 100 to 500 nM.

Turning to `Cc1ccc(S(=O)(=O)N2CC(CO)C2)cc1-c1cnc2c(N)ncnn12` [Example 128, (1-((3-(4-aminoimidazo[2,1-f][1,2,4]triazin-7-yl)-4-methylphenyl)sulfonyl)azetidin-3-yl)methanol], the values for the half-maximal inhibitory concentration (IC50) in assay [1], in assay [2] (Homo sapiens) and in assay [3] were less than 100 nM, 100 to 500 nM and 100 to 500 nM, respectively.

Take `Cc1ccc(S(=O)(=O)NC23CC(c4nnn[nH]4)(C2)C3)cc1-c1cnc2c(N)nc(C(F)(F)F)cn12` [Example 292, N-(3-(1H-Tetrazol-5-yl)bicyclo[1.1.1]pentan-1-yl)-3-(8-amino-6-(trifluoromethyl)imidazo[1,2-a]pyrazin-3-yl)-4-methylbenzenesulfonamide trifluoroacetate salt]: the figures for the IC50 in assay [1], in assay [2] (Homo sapiens) and in assay [3] were less than 100 nM, greater than 1000 nM and 500 to 2000 nM, respectively.

With `Cc1ccc(S(=O)(=O)N[C@H]2CC[C@H](CF)OC2)cc1-c1cnc2c(N)ncnn12` [Example 467, 3-(4-Aminoimidazo[2,1-f][1,2,4]triazin-7-yl)-N-((3S,6R)-6-(fluoromethyl)tetrahydro-2H-pyran-3-yl)-4-methylbenzenesulfonamide], the IC50 in assay [1] is less than 100 nM; in assay [2] (Homo sapiens), less than 100 nM; in assay [3] it was 100 to 500 nM.

`Cc1ccc(S(=O)(=O)N[C@H]2C[C@H](CO)C2)cc1-c1cnc2c(N)nccn12` [Example 56, 3-(8-Aminoimidazo[1,2-a]pyrazin-3-yl)-N-[trans-3-(hydroxymethyl)cyclobutyl]-4-methylbenzenesulfonamide]: the IC50 in assay [1] is less than 100 nM; in assay [2] (Homo sapiens), greater than 1000 nM; in assay [3], 500 to 2000 nM.

`C[C@]1(O)CC[C@H](NS(=O)(=O)c2cc(-c3cnc4c(N)nc(-c5ccccc5F)cn34)ccc2F)CC1` [Example 421, 5-(8-amino-6-(2-fluorophenyl)imidazo[1,2-a]pyrazin-3-yl)-2-fluoro-N-((1r,4r)-4-hydroxy-4-methylcyclohexyl)benzenesulfonamide]: the IC50 in assay [1], in assay [2] and in assay [3] was less than 100 nM in each case.

Turning to `C[C@]1(O)CC[C@H](NS(=O)(=O)c2cc(-c3cnc4c(N)nc(-c5ccncc5F)cn34)ccc2F)CC1` [Example 422, 5-(8-amino-6-(3-fluoropyridin-4-yl)imidazo[1,2-a]pyrazin-3-yl)-2-fluoro-N-((1r,4r)-4-hydroxy-4-methylcyclohexyl)benzenesulfonamide], the IC50 in assay [1], in assay [2] and in assay [3] was less than 100 nM throughout.

As to `Cc1ccc(S(=O)(=O)NC2CCOCC2)cc1-c1cnc2c(N)ncnn12` [Example 68, 3-(4-Aminoimidazo[2,1-f][1,2,4]triazin-7-yl)-4-methyl-N-(tetrahydro-2H-pyrazn-4-yl)benzenesulfonamide], the IC50 is less than 100 nM in assay [1], 500 to 1000 nM in assay [2] and 500 to 2000 nM in assay [3].

For `N#CC12CCC(NS(=O)(=O)c3cc(-c4cnc5c(N)ncnn45)ccc3F)(C1)C2` [Example 365, 5-(4-Aminoimidazo[1,2-f][1,2,4]triazin-7-yl)-N-(4-cyanobicyclo[2.1.1]hexan-1-yl)-2-fluorobenzenesulfonamide trifluoroacetate salt], the IC50 in assay [1] was less than 100 nM; in assay [2] it was 100 to 500 nM; in assay [3], 100 to 500 nM.

Regarding `Cc1ccc(S(=O)(=O)N[C@H]2CC[C@H](O)CC2)cc1-c1cnc2c(N)nc(-c3ccc(CO)cc3F)cn12` [Example 32, 3-{8-Amino-6-[2-fluoro-4-(hydroxymethyl)phenyl]imidazo[1,2-a]pyrazin-3-yl}-N-(trans-4-hydroxycyclohexyl)-4-methylbenzenesulfonamide], the IC50 in assay [1], in assay [2] (Homo sapiens) and in assay [3] was less than 100 nM each time.

Take `Cc1ccc(S(=O)(=O)NC2CC(CO)(CO)C2)cc1-c1cnc2c(N)ncnn12` [Example 126, 3-(4-aminoimidazo[2,1-f][1,2,4]triazin-7-yl)-N-[3,3-bis(hydroxymethyl)cyclobutyl]-4-methylbenzenesulfonamide]: the results for the 50% inhibitory concentration (IC50) in assay [1], in assay [2] (Homo sapiens) and in assay [3] were less than 100 nM, 100 to 500 nM and 500 to 2000 nM, respectively.

Take `Cc1ccc(S(=O)(=O)NC23CC(N)(C2)C3)cc1-c1cnc2c(N)nc(C(F)(F)F)nn12` [Example 341, 3-(4-Amino-2-(trifluoromethyl)imidazo[1,2-f][1,2,4]triazin-7-yl)-N-(3-aminobicyclo[1.1.1]pentan-1-yl)-4-methylbenzenesulfonamide trifluoroacetate salt]: the IC50 in assay [1] is less than 100 nM; in assay [2], 100 to 500 nM; in assay [3], 100 to 500 nM.

As for `Cc1ccc(S(=O)(=O)CCC(F)(F)F)cc1-c1cnc2c(N)ncnn12` [Example 493, 7-(2-Methyl-5-((3,3,3-trifluoropropyl)sulfonyl)phenyl)imidazo[2,1-f][1,2,4]triazin-4-amine trifluoroacetate], the results for the IC50 in assay [1], in assay [2] (Homo sapiens) and in assay [3] were 100 to 500 nM, greater than 1000 nM and greater than 2000 nM, respectively.

As for `Cc1ccc(S(=O)(=O)CCC(C)(C)O)cc1-c1cnc2c(N)nc(C(F)(F)F)cn12` [Example 495, 4-((3-(8-Amino-6-(trifluoromethyl)imidazo[1,2-a]pyrazin-3-yl)-4-methylphenyl)sulfonyl)-2-methylbutan-2-ol], the IC50 in assay [1] was less than 100 nM; in assay [2], greater than 1000 nM; in assay [3], 500 to 2000 nM.

For the compound `Cc1ccc(S(=O)(=O)NC23CC(C(F)F)(C2)C3)cc1-c1cnc2c(N)nc(C(F)(F)F)nn12` [Example 339, 3-(4-Amino-2-(trifluoromethyl)imidazo[1,2-f][1,2,4]triazin-7-yl)-N-(3-(difluoromethyl)bicyclo[1.1.1]pentan-1-yl)-4-methylbenzenesulfonamide trifluoroacetate salt], the results for the IC50 in assay [1], in assay [2] and in assay [3] were less than 100 nM, 100 to 500 nM and 100 to 500 nM, respectively.

`Cc1ccc(S(=O)(=O)N2CC3(CCN(C)C3=O)C2)cc1-c1cnc2c(N)nc(C(F)(F)F)nn12` [Example 348, 2-((3-(4-amino-2-(trifluoromethyl)imidazo[2,1-f][1,2,4]triazin-7-yl)-4-methylphenyl)sulfonyl)-6-methyl-2,6-diazaspiro[3.4]octan-5-one]: the IC50 is less than 100 nM in assay [1], 100 to 500 nM in assay [2] (Homo sapiens) and less than 100 nM in assay [3].

Regarding `CNc1nc(-c2ccccc2F)cn2c(-c3cc(S(=O)(=O)N[C@H]4CC[C@H](O)CC4)ccc3C)cnc12` [Example 36, 3-[6-(2-Fluorophenyl)-8-(methylamino)imidazo[1,2-a]pyrazin-3-yl]-N-(trans-4-hydroxycyclohexyl)-4-methylbenzenesulfonamide trifluoroacetate], the IC50 in assay [1], in assay [2] (Homo sapiens) and in assay [3] was less than 100 nM each time.
